Measurements taken from patent publication US6338963B1, “Use of carbon monoxide dependent guanylyl cyclase modifiers to stimulate neuritogenesis” (NeoTherapeutics, Inc., priority 1994, dated 2002).
Several values for one entry are separate records, joined by “and”; a condition that tells them apart may be missing. Equal values may be shown once.

Key:
TGFβ1 = test: Summary of effects on growth factor mRNA and protein (Table R): TGFβ1; design: key: ± = mRNA; + = protein; nt = not tested; details: Cultured Cells
From the text: The constellation of effects of AIT-082 on production of mRNA encoding growth factors and on production of growth factor proteins is shown in Table R. The results summarized in […] show both transcriptional and translational effects on growth factors that are in the categories of neurotrophins, pleiotrophins, members of the S100 family of EF hand calcium binding proteins, and members of the TGFβ superfamily. As indicated, effects have been shown at both the mRNA (transcriptional) and protein (translational) levels.

[1] = tested on: basal forebrain cholinergic neurons; test: Fimbria-fornix transection, ChAT-positive medial septum neurons; format: in vivo, F344 rats; details: AIT-082 30 mg/kg IP every three days, 14 days post-lesion
Description: This model is the gold standard for examining the effects of neurotrophic factors, neurotrophic factor-releasing agents, and neurotrophic factor analogues in the central nervous system (CNS). Fimbria-fornix transections (FFT) are performed to induce the degeneration of basal forebrain cholinergic (BFC) neurons. […] The infusion of nerve growth factor completely prevents the degeneration of these neurons. In this experiment, animals received AIT-082 to determine whether it would prevent lesion-induced degeneration of BFC neurons.
Adult female F344 rats received an intraperitoneal (IP) injection of AIT-082 (30 mg/kg) or saline one hour prior to receiving a unilateral fimbria-fornix transection (FFT) (n=6 per group). All animals survived the surgery and continued to receive IP injections of AIT-082 or vehicle every three days following the lesion. All animals were perfused with fixative at 14 days post-lesion and brains were sectioned and processed for choline acetyltransferase (ChAT) and p75 immunoreactivity. For analysis, three sections, 240 μm apart, were taken at the level of the medial septum and ChAT positive cells were counted both ipsilateral and contralateral to the lesion.
For the results of FIG. 44, ChAT-positive cells were counted in three sections, 240 μm apart. Data was expressed as a ratio of cell counts ipsilateral to the lesion divided by counts contralateral to the lesion. […]

mice [2] = details: oral or intraperitoneal route, preliminary
NT-3 = test: Two-site ELISA of growth factor protein in rat brain and spinal cord: NT-3; format: in vivo, F344 rats
Description: Adult female F344 rats were given either AIT-082 (doses: 30 mg/kg/day or a higher dose of 30 mg/ml (˜3,000 mg/kg/day); n=6 rats per group) in their drinking water, or water alone, as a vehicle for control. The duration of the study was seven days, at which time the rats were anesthesized and perfused with ice-cold saline. The brains of the rats were rapidly removed. The brains were placed on a chilled glass plate and dissected into the following regions: basal forebrain, frontal cortex, parietal cortex, cerebellum, spinal cord, and hippocampal formation. Tissues were stored at −70° C. until assayed in a specific two-site ELISA for either NGF, BDNF, NT-3, or GNDF.
The results are shown in FIGS. 45 (BDNF), 46 (NT-3), 47 (GDNF) and 48 (NGF). For the results shown in FIGS. 45-48, animals were given only water (VEH, n=6) or water with AIT-082 at either 30 mg/kg/day (n=6) or 30 mg/ml (n=6) for seven days. The levels of each growth factor were determined in the frontal cortex (F. Cor.), parietal cortex (P.Cor.), hippocampal formation (Hipp.), basal forebrain (B.F.), cerebellum (Cer.), or spinal cord (Cord) using a specific two-site ELISA for each growth factor.
Adult female rats were given AIT-082 (30 mg/kg/day) in their drinking water or drinking water alone (n=6 for each group) for seven days prior to receiving a bilateral fimbria fornix transection (FFT).
The results are shown in FIGS. 49 (BDNF), 50 (NT-3), 51 (GDNF) and 52 (NGF). For the results shown in the Figures, animals were given only water (VEH, n=3) or water with AIT-082 at 30 mg/kg/day (n=3). Levels of the growth factor were determined in frontal cortex (F.Cor.), parietal cortex (P.Cor.), hippocampal formation (Hipp.), basal forebrain (B.F.), cerebellum (Cer.), or spinal cord (Cord) using a specific two-site ELISA for each growth factor.
Aged female Fischer 344 rats (obtained from National Institute on Aging; 24 months on arrival) were given AIT-082 (30 mg/kg/day) in their drinking water or drinking water alone, for a period of 30 days (n=5 rats per group). After 30 days, animals were sacrificed and fresh tissues were dissected as described above. An additional set of young animals (n=5) was processed along with the aged rats for comparison.
Results are shown in FIGS. 53 (BDNF), 54 (NT3), 55 (GDNF), and 56 (NGF). As described above, for the results shown in these figures, aged rats (24 months of age) were given water (vehicle control; n=5) or water with AIT-082 (at 30 mg/kg/day; n=5 for 30 days). A separate group of young untreated animals was also included (n=5). Levels of each growth factor were determined in frontal cortex (F.Cor.), parietal cortex (P. Cor.), hippocampal formation (Hipp.), basal forebrain (B.F.), cerebellum (Cer.) or spinal cord (Cord) using a specific two-site ELISA.

[3] = Brain tissue levels of AIT-082 (HPLC); format: in vivo, C57BL/6 mice; details: for Level of AIT-082 in brain tissue: 30 mg/kg i.p., 30 minutes after administration, 30 mg/kg
mice [4] = test: Motor coordination, accelerating Roto-Rod treadmill; format: in vivo; details: AIT dose 0.005 mg/kg
Description: Motor coordination was measured using an accelerating Roto-Rod treadmill for mice (Ugo Basile Co.). At various times after treatment with saline or drug, mice were placed on the Roto-Rod, which accelerates to maximum speed over a 5 minute period. The time in seconds at which the subject falls off was recorded in Table B directly below. Each animal was tested 3 times and the mean time was recorded.

C57BL/6 mice = test: Ethanol-induced working memory deficit (win-shift); format: in vivo; details: Ethanol 0.5 gm/kg i.p. + AIT-082 30 mg/kg i.p. 1 hour prior
Description: Six month old male C57BL/6 mice were evaluated in the win-shift model in combination with treatment with ethanol, a non-specific memory suppressant, and AIT-082. Subjects were treated with saline (control) or AIT-082 (30 mg/kg. i.p.) 1 hour prior to testing. Ethanol was administered at a dose of 0.5 gm/kg i.p. ten minutes prior to testing.

SMILES: O=C(CCn1cnc2c(=O)[nH]cnc21)Nc1ccc(C(=O)O)cc1 [AIT-082, N-4-carboxyphenyl-3-(6-oxohydropurin-9-yl)propanamide]
- TGFβ1, effect on mRNA/protein production (TGFβ1): +
- lesion-induced loss of ChAT-labeled cells in the BFC region [1]: did not reduce lesion-induced loss of ChAT-labeled cells
- LD50 (mice [2]): > 3000 mg/kg
- NT-3 protein levels compared to vehicle controls (NT-3; FFT-lesioned rats, 30 mg/kg/day, basal forebrain): threefold
- NT-3 protein levels (NT-3; aged rats, 30 mg/kg/day 30 days, hippocampus): restored NT-3 protein levels to those of young animals
- NT-3 protein levels (NT-3; intact adult rats, 30 mg/kg/day, cerebellum): increased NT-3 levels in cerebellum over vehicle controls
- NT-3 protein levels (NT-3; intact adult rats, 3000 mg/kg/day, cerebellum): absent
- level detected in brain ([3]; 30 minutes after oral administration): ≤ 3.3 ng/mg brain tissue
- Level of AIT-082 in brain tissue ([3]; Cortex): 2.8 ng/mg brain tissue and 3.4 ng/mg brain tissue
- Level of AIT-082 in brain tissue ([3]; Remainder of brain): 2.3 ng/mg brain tissue and 3.3 ng/mg brain tissue
- passage of the blood-brain barrier ([3]; brain tissue after 30 minutes): crosses the blood-brain barrier without degradation
- Roto-Rod performance, Time (mice [4]): 162 ± 93 s
- Correct trials (mean number of correct responses per 10 trials ± S.E.) (C57BL/6 mice): 7.89 ± 0.54
